How the values were obtained:
Androgen receptor = molecular target: T1, Androgen receptor (Homo sapiens, UniProt P10275); test: Antagonist activity at human androgen receptor transfected in African green monkey CV-1 cells cotransfected with genetic response element-luciferase reporter gene assessed as inhibition of 5alpha-dihydro-11-keto testosterone induced response incubated for 22 hrs by luciferase detection reagent based assay; assay type: cell-based
T1 sequence (P10275 whole entry): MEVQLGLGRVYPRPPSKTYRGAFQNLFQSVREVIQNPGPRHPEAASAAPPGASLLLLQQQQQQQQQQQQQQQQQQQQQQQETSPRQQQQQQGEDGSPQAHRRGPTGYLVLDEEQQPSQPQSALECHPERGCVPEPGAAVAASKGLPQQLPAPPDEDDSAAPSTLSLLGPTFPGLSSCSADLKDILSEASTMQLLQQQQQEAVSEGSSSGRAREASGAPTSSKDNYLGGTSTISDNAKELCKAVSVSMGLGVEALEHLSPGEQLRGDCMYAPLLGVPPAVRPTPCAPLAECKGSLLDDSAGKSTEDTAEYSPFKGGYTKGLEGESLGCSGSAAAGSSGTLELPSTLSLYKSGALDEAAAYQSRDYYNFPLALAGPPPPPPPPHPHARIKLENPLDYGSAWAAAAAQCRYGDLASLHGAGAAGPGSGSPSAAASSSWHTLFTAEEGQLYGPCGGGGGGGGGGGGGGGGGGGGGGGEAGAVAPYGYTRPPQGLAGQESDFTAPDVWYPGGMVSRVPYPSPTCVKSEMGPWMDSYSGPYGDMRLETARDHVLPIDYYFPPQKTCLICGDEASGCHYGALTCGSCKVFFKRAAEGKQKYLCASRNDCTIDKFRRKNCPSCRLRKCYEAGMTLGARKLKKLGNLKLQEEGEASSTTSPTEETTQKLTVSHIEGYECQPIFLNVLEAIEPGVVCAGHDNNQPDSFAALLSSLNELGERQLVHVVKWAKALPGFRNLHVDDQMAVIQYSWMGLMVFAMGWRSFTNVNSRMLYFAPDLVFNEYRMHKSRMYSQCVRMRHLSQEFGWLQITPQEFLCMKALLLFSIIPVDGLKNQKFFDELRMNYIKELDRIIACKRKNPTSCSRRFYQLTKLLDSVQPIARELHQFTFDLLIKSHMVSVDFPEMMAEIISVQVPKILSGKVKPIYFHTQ

[1] = Inhibition of TNF alpha production in recombinant human IL-1 beta induced A549 cells assessed as maximum inhibition preincubated with compound for 1 hr followed by IL-1 beta addition and measured after 20 hrs by MSD assay relative to control; assay type: functional; conditions: time 21 hrs
[2] = Inhibition of IL-6 production in recombinant human IL-1 beta induced A549 cells assessed as maximum inhibition preincubated with compound for 1 hr followed by IL-1 beta addition and measured after 20 hrs by MSD assay relative to control; assay type: functional; conditions: time 21 hrs

Compound | IC50 (Androgen receptor) [nM] | inhibition (INH) [2] [%] | also measured
Cc1ncccc1NC(=O)c1ccc2c(c1)C(=O)C[C@@H]1C[C@@](O)(c3ccccc3)[C@H](O)C[C@@]21Cc1ccccc1 |  | 60 | inhibition (INH) [1]: 60%
Cc1ncccc1Nc1ccc2c(c1)CCC1=C3C[C@@H](O)C[C@]3(C)CC[C@]12C | 401 |  | 
Cc1ncccc1NC(=O)c1ccc2c(c1)CC[C@@H]1C[C@@](O)(C(F)(F)F)CC[C@@]21Cc1ccccc1 [DAGROCORAT] |  | 60 | inhibition (INH) [1]: 60%
C[C@@H]1C[C@H]2[C@@H]3CCC4=CC(=O)C=C[C@]4(C)[C@@]3(F)[C@@H](O)C[C@]2(C)[C@@]1(O)C(=O)CO [DEXAMETHASONE] |  |  | Imax [1]: 100%; Imax [2]: 98%
CC#C[C@]1(O)CC[C@H]2[C@@H]3CCC4=CC(=O)CCC4=C3[C@@H](c3ccc(N(C)C)cc3)C[C@@]21C [MIFEPRISTONE] |  | <20 | 

More lines, main results first:

IC50 (Androgen receptor) [nM] | Compound | inhibition (INH) [2] [%] | also measured
> 10000 | Cc1ncncc1Nc1ccc2c(c1)CCC1=C3C[C@H](O)C[C@]3(C)CC[C@]12Cc1ccccc1 |  | 
> 10000 | Cc1ncncc1Nc1ccc2c(c1)CCC1=C3C[C@@H](O)C[C@]3(C)CC[C@]12Cc1ccccc1 |  | 
174 | Cc1ncccc1Nc1ccc2c(c1)CCC1=C3C[C@@H](O)C[C@]3(C)CC[C@]12Cc1ccccc1 |  | 
